The values below come from patent US20260092085A1, “SYNTHETIC TRIPLEX PEPTIDE NUCLEIC ACID-BASED INHIBITORS FOR CANCER THERAPY” (University of Connecticut, priority 2022, published 2026).

One data set concerns Mcl-1 and Caspase-3. Description: Western blot of Mcl-1 and Caspase-3 in U2932 cells. To be noted: U2932, 500 nM. It is filed as cell-based, human. The protocol:
FIGS. 3A-F show cell culture-based functional assay in U2932 lymphoma cells. (3A) γtcPNA-155-TAMRA uptake in the U2932 lymphoma cell line: Representative flow cytometry traces of TAMRA fluorescence in U2932 cells after treatment with 500 nM dose of γtcPNA-155-TAMRA for 48 hours. The data was analyzed by FlowJo software. (3B) Normalized miR-155 gene expression levels in U2932 after treatment with phosphate buffer saline (PBS) as a control and with 500 nM dose of Scr-γtcPNA-155, PNA-155, γPNA-155 and γtcPNA-155 for 48 hours compared to average control U6 (n=3), data represented as mean±standard error mean (SEM), Statistical analysis was performed using Unpaired two-tailed t-test. […] (3E) Representative western blot of Mcl-1 and its quantification (n=3 technical replicate) and (3F) Caspase-3 protein and its quantification (n=3 technical replicate) in U2932 cell line after treatment with 500 nM of Scr-γtcPNA-155, PNA-155 and γtcPNA-155 for 48 hours. […] Numbers above western blot panels represent relative quantification of the respective bands using ImageJ software and normalized relative to loading control and treatment control.
FIGS. 5A-B show representative western blot of Mcl-1 (5A) and Caspase-3 (5B) and its quantification (n=3) obtained from U2932 cell line after treatment with 500 nM of Scr-γtcPNA-155, γPNA-155 and γtcPNA-155 for 48 hours. […]
Background: In western blotting, separated proteins are transferred to a membrane and probed.

Data set [1] concerns miR-155 associated tumor suppressor genes. Description: Gene expression of miR-155 downstream tumor suppressor genes in SUDHL-2 cells. It is filed as cell-based. To be noted: SUDHL-2, in comparison to Scr-γtcPNA-155 and PNA-155. The protocol:
Data is normalized with average GAPDH control (n=3), and represented as mean±SEM, **p<0.01. Unpaired two tailed t-test was used for statistical analysis and the analysis was performed relative to Scr-gtcPNA-155.
Similarly, 400,000 SUDHL-2 cells were seeded in a 12 well plate and treated with 500 nM Scr gamma tcPNA-155, PNA-155 and gamma tcPNA-155 for 48 hrs in an incubator (37° C. and 5% CO2). The RNA was extracted and the samples for gene expression were prepared in the same manner as described above.

A further data set concerns SUDHL-5 cells. Description: Cell viability by trypan blue assay, SUDHL-5. It is filed as cell-based. The protocol:
Cell viability was performed using trypan blue-based assay (n=3 technical triplicate), data represented as mean±(SEM), * represents the statistical analysis were performed relative to Scr-γtcPNA-155 and ♦ represent analysis performed relative to PNA-155. *p<0.05, **p<0.01, ***p<0.001 and ****p<0.0001, ♦p<0.05, ♦♦p<0.01, unpaired two-tailed t-test was used for statistical analysis. The experiment was repeated three times and in triplicate.
Cell viability was performed using trypan blue-based assay (n=3), data represented as mean±standard error mean (SEM), *p<0.05, **p<0.01. Unpaired two-tailed t-test was used for statistical analysis.
Cell viability was performed using trypan blue-based assay (n=3), data represented as mean±standard error mean (SEM).
Cell viability by trypan blue assay: Diffused large B cell lymphoma (DLBCL) cell lines like SUDHL-2 (ATCC® CRL-2956™) and SUDHL-5 (ATCC® CRL-2958™) cells were purchased from ATCC (Virginia, USA). The cells were regularly tested for Mycoplasma contamination using MycoAlert™ Mycoplasma detection kit (Lonza). All the cells used in the experiment were passaged less than 8 times. 10,000 U2932, SUDHL-5, or SUDHL-2 cells were plated in a 96 well plate. The cells were treated with different doses (500 nM, 1000 nM, 2000 nM and 4000 nM) of PNA-155, gamma tcPNA-155 or Scr-γtcPNA-155 for 48 hrs in an incubator (37° C. and 5% CO2). The dead cells were marked with trypan blue. Further counting was performed using an automated cell counter (Bio-rad).

Take “γtcPNA-155: serine gamma tail-clamp anti-miR-155 PNA, RR-TJJJJ-OOO-ACCCCTATCACGATTAGCATTAA-RR, SEQ ID NO: 3 (all peptide nucleic acid (PNA); serine gamma PNA, tail-clamp TJJJJ via linkers, Arg-Arg at both ends)”: in the data set with Mcl-1 and Caspase-3, the “downregulation of Mcl-1 protein (western blot)” value amounted to 50% and the “upregulation of Caspase-3 protein (western blot)” value was determined as 80%. In addition, the “upregulation of miR-155 associated tumor suppressor genes” value in data set [1] is “significant upregulation”. Moreover, the “reduction in cell viability at 500 nM” value in the data set with SUDHL-5 cells (SUDHL-5, 500 nM, compared to PNA-155 treated group) is “significant reduction in cell viability”. Moreover, the “decrease in cell viability” value in the data set with SUDHL-5 cells (SUDHL-5, 4UM, 48 hours) was approximately 80%.
